According to patent US20040213837A1, “Oil-core compositions for the sustained release of hydrophobic drugs” (priority 2002, published 2004):
Values after ≈ are worked out from the molar mass of the structure shown. Where a name gives a salt, the structure may show the parent alone. Blank lines part the entries; values can stand above or below the compound they belong to.

Assays:
[1] = In vivo concentration-time course of paclitaxel after intraperitoneal injection; conditions: rat, 16 mg/kg intraperitoneal, OCP or conventional formulation, HPLC
Description: “Conventional” formulations of paclitaxel were prepared by adding 6 mg paclitaxel to 1 mL of a mixture (1:1, v/v) of anhydrous alcohol and Cremophor® EL (Sigma Chemical Company, St. Louis, Mo.). […] At the indicated time points, animals were euthanized and blood, peritoneal fluid, liver, and spleen samples were collected, processed and quickly frozen.
Paclitaxel concentrations in plasma, peritoneal fluid, and homogenized tissues were determined by HPLC after liquid-liquid extraction of the samples with diethyl ether followed by solid-phase extraction (Bond Elut; Varian, Harbor City, Calif.). The samples were then suspended in 45:15:40 acetonitrile:methanol:water, and 50 μL was injected onto a Waters Symmetry C18 column (Waters, Taunton, Mass.) with a Hewlett-Packard Model 1100 solvent delivery system (Hewlett-Packard, Wilmington, Del.). The mobile phase was a mixture of acetonitrile, methanol, and 0.2 M ammonium acetate at pH 5 (45:15:40) with a rate of 1 mL/min; detection was at a wavelength of 230 nm. Apparent terminal half-lives (T1/2beta) were estimated from the terminal log-linear decline of the concentration-time profiles.

microtubule bundling = conditions: Rowinsky et al., Cancer Research 48: 4093-4100, 1988; cited from earlier work
response to pin pricks = experiment: Guinea pig intracutaneous injection, response to pin pricks; assay type: in vivo, guinea pigs; conditions: 1.0 mL intracutaneous, equivalent to 1% bupivacaine HCl monohydrate
Description: This is used in an assay of anesthetic effect. Previously shaved guinea pigs (4-5 per group) were marked with a stencil in the form of a circular array, with 17 tick marks at various radii and directions from the center of the array. Animals anesthetized with Halothane were injected intracutaneously with 1.0 mL of either the tricaprylin-core bupivacaine suspension or a solution of 1% bupivacaine HCl monohydrate in 5% sorbitol. The response to pin pricks was tested at various post-injection intervals (30 min, 3, 6, 9, 12, 18, 24, 30 and 36 hours) and the results summarized in FIG. 3. A vocalization or muscle twitch was considered a positive response. The guinea pigs' response to the bupivacaine solution decayed to half of its maximum at about 3.6 hours after injection. An equivalent (on a molar basis) dose of bupivacaine free base tricaprylin-core suspension took about 8½ hours to decay to the same number of negative responses, and took about 11 hours to decay to half of the maximal response for this formulation.

[2] = Solubility of bupivacaine free-base in triolein or tricaprylin; assay type: physicochemical
Description: To confirm that the formation of bupivacaine crystals was related to differing solubility of the drug in the oils used, a solubility experiment was performed. Varying amounts of bupivacaine free-base were added to 1.0 g aliquots of either triolein or tricaprylin in small vials with Teflon-lined screw caps. These vials were heated to ˜70° C., shaken vigorously, cooled to room temperature, then 1.0 mL of 10 mM lysine/5% sorbitol was added to each vial. The vials were put in a 4° C. cold room for a month. […] This vial was the only one in which a precipitate disappeared upon warming to room temperature.

[3] = 4° C. for a month, with 10 mM lysine/5% sorbitol

Paclitaxel levels in plasma [1]: below the limit of detection
Compound: CC(=O)O[C@H]1C(=O)[C@@]2(C)[C@H]([C@H](OC(=O)c3ccccc3)[C@]3(O)C[C@H](OC(=O)[C@H](O)[C@@H](NC(=O)c4ccccc4)c4ccccc4)C(C)=C1C3(C)C)[C@]1(OC(C)=O)CO[C@@H]1C[C@@H]2O [Paclitaxel, paclitaxel]
minimum inhibitory concentration required to induce microtubule bundling and other cytotoxic effects in vitro (microtubule bundling): 0.085 µg/mL (≈ 0.0995 µM)

Compound: CCCCN1CCCCC1C(=O)Nc1c(C)cccc1C (centres unmarked) [bupivacaine solution, bupivacaine HCl monohydrate]
time for response to decay to half of its maximum (response to pin pricks): about 3.6 hours

bupivacaine content at which no precipitates were seen, in tricaprylin [2, 3]: ≤ 40 mg per g tricaprylin | bupivacaine content at which no precipitates were seen, in triolein [2, 3]: ≤ 20 mg per g triolein | bupivacaine content at which precipitates or large masses were seen, in tricaprylin [2, 3]: ≥ 50 mg per g tricaprylin | bupivacaine content at which precipitates or large masses were seen, in triolein [2, 3]: ≥ 30 mg per g triolein
Compound: CCCCN1CCCCC1C(=O)Nc1c(C)cccc1C (centres unmarked) [bupivacaine free-base, bupivacaine]
relative solubility in tricaprylin and triolein [2]: more soluble in tricaprylin than in triolein
